Laboratory results: PubChem BioAssay (NCI)
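Protocol summary: plate cells (96-well), add compound at 5 concentrations, incubate 48 h, interpolate endpoints linearly. The concentration for 50% growth inhibition is given as GI50. TGI denotes the concentration required for complete inhibition of growth.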

Assays:
Assay in all cases: growth of human tumour cells (NCI), 48 h; in the data active = GI50 below about 0.43 µM; inactive = the rest
786-0 renal = tested on: 786-0 renal
A498 renal = tested on: A498 renal
A549 NSCLC = tested on: A549 NSCLC
ACHN renal = tested on: ACHN renal
BT-549 breast = tested on: BT-549 breast
CAKI-1 renal = tested on: CAKI-1 renal
CCRF-CEM leukemia = tested on: CCRF-CEM leukemia
COLO 205 colon = tested on: COLO 205 colon
DU-145 prostate = tested on: DU-145 prostate
HCC-2998 colon = tested on: HCC-2998 colon
HCT-116 colon = tested on: HCT-116 colon
HCT-15 colon = tested on: HCT-15 colon
HL-60(TB) leukemia = tested on: HL-60(TB) leukemia
HOP-62 NSCLC = tested on: HOP-62 NSCLC
HOP-92 NSCLC = tested on: HOP-92 NSCLC
HS 578T breast = tested on: HS 578T breast
HT29 colon = tested on: HT29 colon
IGROV1 ovarian = tested on: IGROV1 ovarian
K-562 leukemia = tested on: K-562 leukemia
KM12 colon = tested on: KM12 colon
LOX IMVI melanoma = tested on: LOX IMVI melanoma
M14 melanoma = tested on: M14 melanoma
MALME-3M melanoma = tested on: MALME-3M melanoma
MCF7 breast = tested on: MCF7 breast
MDA-MB-231 breast = tested on: MDA-MB-231 breast
MDA-MB-435 = tested on: MDA-MB-435
MOLT-4 leukemia = tested on: MOLT-4 leukemia
NCI-H226 lung = tested on: NCI-H226 lung
NCI-H23 lung = tested on: NCI-H23 lung
NCI-H460 lung = tested on: NCI-H460 lung
NCI-H522 lung = tested on: NCI-H522 lung
NCI/ADR-RES ovarian = tested on: NCI/ADR-RES ovarian
OVCAR-3 ovarian = tested on: OVCAR-3 ovarian
OVCAR-4 ovarian = tested on: OVCAR-4 ovarian
OVCAR-5 ovarian = tested on: OVCAR-5 ovarian
OVCAR-8 ovarian = tested on: OVCAR-8 ovarian
PC-3 prostate = tested on: PC-3 prostate
RPMI-8226 leukemia = tested on: RPMI-8226 leukemia
RXF 393 renal = tested on: RXF 393 renal
SF-268 CNS = tested on: SF-268 CNS
SF-539 CNS = tested on: SF-539 CNS
SK-MEL-2 melanoma = tested on: SK-MEL-2 melanoma
SK-MEL-28 melanoma = tested on: SK-MEL-28 melanoma
SK-MEL-5 melanoma = tested on: SK-MEL-5 melanoma
SK-OV-3 ovarian = tested on: SK-OV-3 ovarian
SN12C renal = tested on: SN12C renal
SNB-19 CNS = tested on: SNB-19 CNS
SR leukemia = tested on: SR leukemia
SW-620 colon = tested on: SW-620 colon
T-47D breast = tested on: T-47D breast
TK-10 renal = tested on: TK-10 renal
U251 CNS = tested on: U251 CNS
UACC-257 melanoma = tested on: UACC-257 melanoma
UACC-62 melanoma = tested on: UACC-62 melanoma
UO-31 renal = tested on: UO-31 renal

COc1cc2ccnc(C=O)c2cc1OC
inactive: GI50 (786-0 renal) 18.3 µM | GI50 (A498 renal) > 100 µM | GI50 (A549 NSCLC) > 100 µM | GI50 (ACHN renal) 4.71 µM | GI50 (BT-549 breast) 2.68 µM | GI50 (CAKI-1 renal) 23 µM | GI50 (CCRF-CEM leukemia) 3.08 µM | GI50 (COLO 205 colon) > 100 µM | GI50 (DU-145 prostate) 4.83 µM | GI50 (HCC-2998 colon) 23.8 µM | GI50 (HCT-116 colon) 1.92 µM | GI50 (HCT-15 colon) 3.43 µM | GI50 (HL-60(TB) leukemia) 2.2 µM | GI50 (HOP-62 NSCLC) 18.2 µM | GI50 (HOP-92 NSCLC) 1.18 µM | GI50 (HS 578T breast) 23.8 µM | GI50 (HT29 colon) 3.3 µM | GI50 (IGROV1 ovarian) 22.8 µM | GI50 (K-562 leukemia) 4.84 µM | GI50 (KM12 colon) 31.9 µM | GI50 (LOX IMVI melanoma) 10.1 µM | GI50 (M14 melanoma) 4.98 µM | GI50 (MALME-3M melanoma) 14.7 µM | GI50 (MCF7 breast) 3.64 µM | GI50 (MDA-MB-231 breast) 6.51 µM | GI50 (MDA-MB-435) 2.63 µM | GI50 (MOLT-4 leukemia) 4.52 µM | GI50 (NCI-H226 lung) 29.9 µM | GI50 (NCI-H23 lung) 24.9 µM | GI50 (NCI-H460 lung) > 100 µM | GI50 (NCI-H522 lung) 12.5 µM | GI50 (NCI/ADR-RES ovarian) 16 µM | GI50 (OVCAR-3 ovarian) 6.36 µM | GI50 (OVCAR-4 ovarian) 5.11 µM | GI50 (OVCAR-5 ovarian) 17 µM | GI50 (OVCAR-8 ovarian) 5.45 µM | GI50 (PC-3 prostate) 23.9 µM | GI50 (RPMI-8226 leukemia) 3.44 µM | GI50 (RXF 393 renal) 1.45 µM | GI50 (SF-268 CNS) 23.5 µM | GI50 (SF-539 CNS) 5.65 µM | GI50 (SK-MEL-2 melanoma) 37.1 µM | GI50 (SK-MEL-28 melanoma) 12.4 µM | GI50 (SK-MEL-5 melanoma) 10.7 µM | GI50 (SK-OV-3 ovarian) > 100 µM | GI50 (SN12C renal) 12.1 µM | GI50 (SNB-19 CNS) > 100 µM | GI50 (SR leukemia) 0.696 µM | GI50 (SW-620 colon) 4.15 µM | GI50 (T-47D breast) 14 µM | GI50 (TK-10 renal) 6.02 µM | GI50 (U251 CNS) 28.7 µM | GI50 (UACC-257 melanoma) 18.9 µM | GI50 (UACC-62 melanoma) 6.87 µM | GI50 (UO-31 renal) 3.98 µM
90.6 µM: TGI (OVCAR-3 ovarian)
31.3 µM: TGI (NCI-H522 lung)
14.8 µM: TGI (HCT-116 colon)
42.2 µM: TGI (UO-31 renal)
5.89 µM: TGI (HL-60(TB) leukemia)
98.1 µM: TGI (HOP-62 NSCLC)
24.2 µM: TGI (OVCAR-4 ovarian)
29.7 µM: TGI (SF-539 CNS)
85.2 µM: TGI (CAKI-1 renal)
38.1 µM: TGI (UACC-62 melanoma)
23.6 µM: TGI (SK-MEL-5 melanoma)
28.5 µM: TGI (M14 melanoma)
5.93 µM: TGI (HOP-92 NSCLC)
75.1 µM: TGI (MDA-MB-231 breast)
34.8 µM: TGI (RPMI-8226 leukemia)
> 100 µM: TGI (786-0 renal) | TGI (A498 renal) | TGI (A549 NSCLC) | TGI (COLO 205 colon) | TGI (DU-145 prostate) | TGI (HCC-2998 colon) | TGI (HCT-15 colon) | TGI (HS 578T breast) | TGI (HT29 colon) | TGI (IGROV1 ovarian) | TGI (K-562 leukemia) | TGI (KM12 colon) | TGI (LOX IMVI melanoma) | TGI (MALME-3M melanoma) | TGI (MCF7 breast) | TGI (NCI-H226 lung) | TGI (NCI-H23 lung) | TGI (NCI-H460 lung) | TGI (NCI/ADR-RES ovarian) | TGI (OVCAR-5 ovarian) | TGI (PC-3 prostate) | TGI (SF-268 CNS) | TGI (SK-MEL-2 melanoma) | TGI (SK-MEL-28 melanoma) | TGI (SK-OV-3 ovarian) | TGI (SN12C renal) | TGI (SNB-19 CNS) | TGI (SR leukemia) | TGI (SW-620 colon) | TGI (T-47D breast) | TGI (U251 CNS) | TGI (UACC-257 melanoma)
7.14 µM: TGI (BT-549 breast)
22.1 µM: TGI (CCRF-CEM leukemia)
4.98 µM: TGI (RXF 393 renal)
44.1 µM: TGI (TK-10 renal)
24.9 µM: TGI (MDA-MB-435)
63.4 µM: TGI (OVCAR-8 ovarian)
54.8 µM: TGI (ACHN renal)
41.4 µM: TGI (MOLT-4 leukemia)
